# What was measured:
# [1] = test system: ICAM-1 expression; assay: Reduction of ICAM-1 expression by DGP in UVA-irradiated ceratinozytes; assay type: cell-based; conditions: Human ceratinozytes pretreated with DGP for 24 hours, UVA radiation
# Experimental: Human ceratinozytes were pretreated with DGP for 24 hours. After radiation using UVA rays (environment noxes) the quantity of ICAM-1 was measured.
# [2] = test system: Balb/c mice sensitized with ovalbumin (acute allergic asthma); assay: Ovalbumin-sensitized mice, allergic asthma model, intranasal ectoine solution; assay type: in vivo; conditions: 50 μl intranasal, 14 treatments day 0 to 32, compared to 0.9% salt solution
# Experimental: Seven-months-old mice of the inbred strain Balb/c were sensitized by injecting them intraperitoneally with a mixture of ovalbumin and aluminum hydroxide contained in a total volume of 200 μl buffer (PBS). The injection was made twice, once on day 0 and once on day 14. The size of each group tested was n=8.
# In order to subsequently induce the allergic reaction in the lungs of the mice, i.e. s to trigger the acute allergic asthma, the mice were treated inhalatively with an ovalbumin aerosol for 30 minutes each on days 28 and 38. For this purpose, the mice were placed in a plexiglass chamber, into which a misty 1% OVA solution was introduced through an inhaler.
# For ectoine treatment, the animals were anesthetized with a mixture of ketamine and rompune. 50 μl of a sterile ectoine solution or 0.9% salt solution was applied in front of the nostrils with glass capillaries until the solution was completed inhaled. The treatments—14 in all—started on day 0. The last treatment was administered on day 32.
# The end points of the study were defined as the bronchial hyperreactivity as measured with a plethysmograph, the b ronchoalveolar lavage (BAL) cellular composition and the release of OVA-specific igE and igG1 antibodies.
# [3] = test system: rats sensitized to ovalbumin (OVA), early allergic reaction; assay: Ovalbumin-induced allergic asthma in rats, early allergic reaction (lung function); assay type: in vivo; conditions: intratracheal pretreatment 48 h, 24 h and 2 h before ovalbumin challenge, in comparison to the negative control
# Excerpt: (§1) The study population consisted of 4 treatment groups, a reference group, a sham-sensitized and vehicle-treated negative control group, and a vehicle-treated positive control group. The group size was n=16.
# In the first phase of the study, all animals, except for the sham-sensitized group, were systemically sensitized to ovalbumin (OVA) plus adjuvants, the negative control group was given NaCl. On days 7 and 14, the animals were intratracheally boosted with OVA (to enhance the sensitizing effect). 48 h, 24 h and 2 h before the final inhalative allergen exposure was performed, three groups and a positive control group were subjected to an intratracheal pretreatment with the test substance, ectoine, at three dosage levels. […] After expiry of the waiting period, the animals were anesthetized, orotracheally intubated in a gentle manner and—after placement of an oesophagus catheter and allowing the mice to reach a steady state—their lung functions (including such parameters as tidal volume, breathing frequency, dynamic compliance and lung resistance) were measured body-plethysmographically prior to provocation. The data was collected and evaluated using a computer program (HEM, Notocord/France) specifically developed for these lung function tests.
# The lung function parameters were continuously recorded during and after exposure in order to measure bronchospasm.
# [4] = test system: rats sensitized to ovalbumin (OVA), late allergic reaction; assay: Ovalbumin-induced allergic asthma in rats, late allergic reaction (hyperreactivity, BAL); assay type: in vivo; conditions: 24 h after the ovalbumin challenge, acetyl-choline hyperreactivity and BAL cell counts, compared to negative control group
# Excerpt: as §1
# In the first phase of the study, all animals, except for the sham-sensitized group, were systemically sensitized to ovalbumin (OVA) plus adjuvants, the negative control group was given NaCl. On days 7 and 14, the animals were intratracheally boosted with OVA (to enhance the sensitizing effect). […] The two control groups were given only NaCl. After expiry of the waiting period, the animals were anesthetized, orotracheally intubated in a gentle manner and—after placement of an oesophagus catheter and allowing the mice to reach a steady state—their lung functions (including such parameters as tidal volume, breathing frequency, dynamic compliance and lung resistance) were measured body-plethysmographically prior to provocation. The data was collected and evaluated using a computer program (HEM, Notocord/France) specifically developed for these lung function tests.
# The late allergic phase was tested 24 h after the ovalbumin challenge. First the animals were tested for airway hyperreactivity to unspecific stimuli. […] Using the lavage liquid, the total and the differential cell counts were determined including the number of esinophiles in the BAL.
# [5] = test system: ICAM-1 expression; assay: Inhibition of ICAM-1 expression by ectoine (RT-PCR, UVA radiation); assay type: cell-based; conditions: ceratinzytes pre-incubated for 24 h with 1 mM ectoine, UVA 30 J/cm^2, RT-PCR relative to β-actin
# Experimental: ICAM-1 expression was measured using differential reverse transcriptase-PCR (RT-PCR) and the Applied Biosystem Kit. To take account of the normal variations in the gene expression of skin cells, ICAM-1 expression is put into relationship to the constitutively formed house-keeping gene, β-actin. The semi-quantitive analysis of RT-PCR was performed by ion exchange chromatography using a UV spectrophotometer (A260). (A) Non-pretreated, radiated control sample (B) pre-incubated for 24 h with 1 mM RonaCare™ Ectoin and radiated with a single dose of 30 J/cm^2 or (C) pre-incubated for 24 h with 1 mM ectoine, non-irradiated. UVA radiation induces upregulation of ICAM-1 expression.
Structure (SMILES),inhibition of ICAM-1 expression [1] [%],"effect on bronchial hyperreactivity, BAL cellular composition and release of OVA-specific igE and igG1 antibodies [2]","effect on lung function parameters (early allergic reaction, bronchospasm) [3]",effect on the late allergic reaction [4],ICAM-1 induction caused by UVA radiation [5]
"O=P(O)(OCC(O)CO)OCC(O)CO (centres unmarked) [DGP, 1,1-diglycerol phosphate]",49,,,,
CC1=NCC[C@@H](C(=O)O)N1 [ectoine],,significant positive effect,significant positive effect,positive effect,almost completely neutralize

# Source: patent US20110053896A1, “OSMOLYTES FOR THE TREATMENT OF ALLERGIC OR VIRAL RESPIRATORY DISEASES” (priority 2007, published 2011)
